Assay results as given in ChEMBL document CHEMBL5727281, “N2-phenyl-pyrido[3,4-D]pyrimidine-2, 8-diamine derivatives and their use as Mps1 inhibitors” (2019).
pIC50: −log10 of the molar value.

What follows are compounds tested against T1, Dual specificity protein kinase TTK (Homo sapiens, UniProt P33981) (assay: The reaction was carried out for 60 min at room temperature and stopped by the addition of buffer (10 μl) containing 20 mM EDTA, 0.05% (v/v) Brij-35, in 0.1M HEPES-buffered saline (Free acid, Sigma, UK). […] The % inhibition of the compounds is calculated relative to the means of selected control wells. […] The % inhibitions at each concentration are then fitted to a 4 parameter logistic fit.).
T1 sequence (P33981 whole entry): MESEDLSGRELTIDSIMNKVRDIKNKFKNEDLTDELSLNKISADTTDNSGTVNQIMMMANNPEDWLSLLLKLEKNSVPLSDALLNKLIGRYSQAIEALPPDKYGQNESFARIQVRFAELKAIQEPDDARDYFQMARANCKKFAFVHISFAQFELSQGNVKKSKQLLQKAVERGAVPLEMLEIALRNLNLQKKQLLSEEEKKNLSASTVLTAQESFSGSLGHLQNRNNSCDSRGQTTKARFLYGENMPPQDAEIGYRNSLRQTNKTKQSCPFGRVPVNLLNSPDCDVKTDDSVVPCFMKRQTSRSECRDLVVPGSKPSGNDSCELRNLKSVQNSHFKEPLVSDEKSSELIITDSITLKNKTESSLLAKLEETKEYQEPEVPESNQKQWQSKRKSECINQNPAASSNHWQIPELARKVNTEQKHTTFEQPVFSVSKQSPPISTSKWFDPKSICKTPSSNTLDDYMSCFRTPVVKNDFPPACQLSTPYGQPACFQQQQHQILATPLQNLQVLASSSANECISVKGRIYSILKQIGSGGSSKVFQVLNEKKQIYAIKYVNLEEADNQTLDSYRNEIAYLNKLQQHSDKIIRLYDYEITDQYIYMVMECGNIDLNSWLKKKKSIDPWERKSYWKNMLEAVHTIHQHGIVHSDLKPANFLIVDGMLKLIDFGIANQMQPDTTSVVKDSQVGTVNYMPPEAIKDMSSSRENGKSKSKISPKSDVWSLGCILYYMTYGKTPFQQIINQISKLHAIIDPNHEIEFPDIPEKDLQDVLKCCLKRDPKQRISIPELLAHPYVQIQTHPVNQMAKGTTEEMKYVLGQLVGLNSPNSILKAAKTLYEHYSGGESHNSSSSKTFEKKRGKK
`CCOc1cc(-c2nncn2C)ccc1Nc1ncc2cc(C)nc(N3CC(O)(CC)C3)c2n1` showed a pIC50 of 8.40. For `CCOc1cc(-c2nncn2C)ccc1Nc1ncc2cc(C)nc(N3CCC(C#N)C3)c2n1` (stereo not drawn), the pIC50 was 8.52. `COc1cc(-c2cnc(C)n2C)ccc1Nc1ncc2cc(C)nc(NCC3(C)CCOC3)c2n1` (stereo not drawn) was tested, and the pIC50 was 8.70. `CCOc1cc(-c2nncn2C)ccc1Nc1ncc2cc(C)nc(N3CCC(C)(OC)CC3)c2n1` gave a pIC50 of 8.52. `CCOc1cc(-c2nncn2C)ccc1Nc1ncc2cc(C)nc(N3CCC(C)(C#N)C3)c2n1` (stereo not drawn) was tested, and the pIC50 was 8.52. For `COc1cc(-c2cnc(C)n2C)ccc1Nc1ncc2cc(C)nc(N3CC(C)(C#N)C3)c2n1`, the pIC50 was 8.70. Work on `CCOc1cc(-c2nncn2C)ccc1Nc1ncc2cc(C)nc(N3CC4(CCCC4)C3)c2n1` yielded a pIC50 of 8.70. For `CCOc1cc(-c2nncn2C)ccc1Nc1ncc2cc(C)nc(N3CC(F)(F)C3)c2n1`, the pIC50 was 8.22.
